Results on 9 molecules are retold here after PMC10252016, “Mutation in the Common Docking Domain Affects MAP Kinase ERK2 Catalysis and Stability” (Cancers, 2023).

One experiment concerns the target T1, D321A (Homo sapiens, UniProt P28482, D321A).
T1 construct: gene MAPK1; recombinant ERK2 D321A
Briefly: biochemical. Set-up: Differential scanning fluorimetry, SYPRO Orange, 2 uM ERK2, melting temperature shift with 12 uM inhibitor. The settings on record: for ΔTm at 12 µM: read-out: ΔTm D321A.

A further experiment addresses T2, D321G (Homo sapiens, UniProt P28482, D321G).
T2 construct: gene MAPK1; recombinant ERK2 D321G
Nature of the experiment: biochemical. The settings on record: for ΔTm at 12 µM: read-out: ΔTm D321G. Details: Differential scanning fluorimetry, SYPRO Orange, 2 uM ERK2, melting temperature shift with 12 uM inhibitor.

The target in experiment [1] is T3, extracellular-signal-regulated kinase 2 (ERK2) E322K (Homo sapiens, UniProt P28482, E322K).
T3 construct: gene MAPK1; recombinant ERK2 E322K
Briefly: biochemical. Details: Differential scanning fluorimetry, SYPRO Orange, 2 uM ERK2, melting temperature shift with 12 uM inhibitor. The settings on record: for ΔTm at 12 µM: read-out: ΔTm E322K.

A further experiment has as its target T4, D321N (Homo sapiens, UniProt P28482, D321N).
T4 construct: gene MAPK1; recombinant ERK2 D321N
Briefly: biochemical. Set-up: Differential scanning fluorimetry, SYPRO Orange, 2 uM ERK2, melting temperature shift with 12 uM inhibitor. The settings on record: for ΔTm at 12 µM: read-out: ΔTm D321N.

The next experiment deals with T5, D321V (Homo sapiens, UniProt P28482, D321V).
T5 construct: gene MAPK1; recombinant ERK2 D321V
Briefly: biochemical. Details: Differential scanning fluorimetry, SYPRO Orange, 2 uM ERK2, melting temperature shift with 12 uM inhibitor. Conditions: for ΔTm at 12 µM: read-out: ΔTm D321V.

In experiment [2] the target is T6, extracellular-signal-regulated kinase 2 (ERK2) (Homo sapiens, UniProt P28482).
T6 construct: gene MAPK1; recombinant ERK2 wild-type
Nature of the experiment: biochemical. Details: Differential scanning fluorimetry, SYPRO Orange, 2 uM ERK2, melting temperature shift with 12 uM inhibitor. The settings on record: for ΔTm at 12 µM: read-out: ΔTm WT.

Another experiment deals with T7, D321E (Homo sapiens, UniProt P28482, D321E).
T7 construct: gene MAPK1; recombinant ERK2 D321E
Nature of the experiment: biochemical. Set-up: Differential scanning fluorimetry, SYPRO Orange, 2 uM ERK2, melting temperature shift with 12 uM inhibitor. Conditions: for ΔTm at 12 µM: read-out: ΔTm D321E.

In experiment [3] the target is T8, phosphorylated ERK2 wild-type (human, UniProt P28482 1-360, phosphorylated at Thr185 and Tyr187).
T8 construct: ERK2 (MAPK1), human, wild-type, phosphorylated on T185 and Y187 by co-expressed active MEK1; also called P-ERK2 wild-type; P-ERK2; not shown: His6, N-terminal, cleaved
Briefly: ITC; Affinity ITC (TA-Instruments), reversed mode: ERK2 protein (90-145 µM) in the cell, peptide (500 µM) in the syringe; 30 °C; 20 mM Hepes pH 7.5, 0.15 M NaCl, 0.5 mM TCEP; single binding site model. The settings on record: both partners purified.

Experiment [4] has as its target T9, non-phosphorylated ERK2 wild-type (extracellular-signal-regulated kinase 2) (human, UniProt P28482 1-360).
T9 construct: ERK2 (MAPK1), human, wild-type; Expressed from pNIC28-Bsa4; also called NP-ERK2 wild-type; NP-ERK2; source: E. coli Rosetta with phosphatase, purified (Ni-NTA, TEV cleavage, second Ni-NTA); not shown: His6, N-terminal, cleaved
The experiment is described as above. Conditions: both partners purified.

As for `COC[C@H]1Cn2cc(-c3nc(Nc4ccnn4C)ncc3C)nc2C(=O)N1Cc1ccc(F)c(F)c1` [AZD0364], the shift in melting temperature (ΔTm) (commonly the shift of the melting midpoint relative to a reference) at 12 µM is 13.3 °C at D321A; 13.9 °C on D321G; 10.2 °C in experiment [1]; 14.5 °C at D321N; 13 °C on D321V; 12.8 °C in experiment [2]. Moreover, the ΔTm at 12 µM at D321E was 13.7 °C.
In the case of `Nc1[nH]nc2nnc(-c3c(-c4ccccc4)nn4ccccc34)cc12` [FR 180204], the ΔTm at 12 µM at D321A is 3.2 °C; on D321G, 4.6 °C; in experiment [1], -1.3 °C; on D321N, 5.4 °C; on D321V it was 5 °C; in experiment [2], 2.8 °C. Further, the ΔTm at 12 µM on D321E was 3.7 °C.
Consider `Cn1nccc1Nc1nccc(-c2ccn([C@H](CO)c3ccc(Cl)c(F)c3)c(=O)c2)n1` [GDC-0994], for which the “ΔTm D321A” value at D321A (12 µM, binder) stood at 10.70 °C. In addition, at D321G (12 µM, binder), the “ΔTm D321G” value amounted to 11.80 °C. Besides, the “ΔTm E322K” value in [1] (12 µM, binder) turned out to be 6.80 °C. Also, at D321N (12 µM, binder), the “ΔTm D321N” value was determined as 12.20 °C. At D321V (12 µM, binder), the “ΔTm D321V” value amounted to 10.30 °C. The “ΔTm WT” value in experiment [2] (12 µM, binder) amounted to 10.30 °C. The “ΔTm D321E” value on D321E (12 µM, binder) is 11.20 °C.
For the molecule `O=C1Nc2cc3[nH]nc(-c4ccncc4)c3cc2CN1Cc1ccccc1` [KO-947], the ΔTm at 12 µM at D321A amounted to 12.3 °C; at D321G it was 13.1 °C; in experiment [1], 9.2 °C; on D321N, 13.6 °C; at D321V it was 11.8 °C; in [2], 11.8 °C. At D321E, the shift in melting temperature (ΔTm) at 12 µM was found to be 12.8 °C.
As to `Cn1nccc1Nc1nccc(-c2cc3c(s2)C(C)(C)N(CCN2CCOCC2)C3=O)n1` [LY3214996], the shift in melting temperature (ΔTm) at 12 µM at D321A was found to be 9.8 °C; at D321G, 10.8 °C; in experiment [1], 6.6 °C; at D321N, 11.2 °C; at D321V it was 10 °C; in experiment [2], 9.4 °C. Moreover, the ΔTm at 12 µM on D321E was 10.3 °C.
For the molecule `O=C(Nc1ccc2[nH]nc(-c3ccncc3)c2c1)[C@@H]1CCN(CC(=O)N2CCN(c3ccc(-c4ncccn4)cc3)CC2)C1` [SCH772984], the ΔTm at 12 µM on D321A was determined as 11 °C; on D321G, 12.2 °C; in experiment [1], 8.7 °C; at D321N, 12.7 °C; on D321V, 11.6 °C; in [2], 11.6 °C. Also, at D321E, the thermal shift (ΔTm) at 12 µM came to 11.7 °C.
Regarding `CC(C)Nc1cc(-c2c[nH]c(C(=O)N[C@H](CO)c3cccc(Cl)c3)c2)c(Cl)cn1` [Ulixertinib], the shift in melting temperature (ΔTm) at 12 µM on D321A was 8.3 °C; on D321G it was 9.1 °C; in experiment [1], 4.6 °C; on D321N, 9.5 °C; on D321V, 8.3 °C; in [2], 7.9 °C. Besides, on D321E, the shift in melting temperature (ΔTm) at 12 µM was determined as 8.8 °C.

B1: Kinase Interaction Motif (KIM) peptide of DUSP6 (peptide)
peptide: GIMLRRLQKGNLPVRAL
notes: Solubilised in 5% DMSO and diluted in buffer; also called KIM of DUSP6; KIM peptide DUSP6; source: synthetic peptide, bought: GenScript
For B1, the dissociation constant (Kd) – broadly, the free concentration of one partner at which half of the binding sites on the other are occupied at equilibrium, for simple one-to-one binding – in [3] was 14.4 µM.

B2: pepMEK2, docking peptide derived from the upstream activating kinase MEK2 (peptide)
peptide: MLARRKPVLPALTINP
notes: docking peptide from MEK2 (MAP2K2), N-terminal stretch; Solubilised in 5% DMSO and diluted in buffer; source: synthetic peptide, bought: GenScript
Regarding B2, the Kd in experiment [4] came out at 23.7 µM. That is a double-digit micromolar value.
